For assay [1], the system named is NALM-6. In words: MTT cytotoxicity assay, NALM-6. Type of assay: cell-based, human. As to conditions: read-out: IC50 against NALM-6. The procedure: (§1) Human B-lineage acute lymphoblastic leukemia (ALL) cell line NALM-6 and T-lineage ALL/lymphoma cell line MOLT-3 were obtained from American Type Culture Collection (Manassas, Va.). Cell lines were propagated in RPMI 1640 supplemented with 10% FCS, 4 mM glutamine, 100 units/ml penicillin G, and […] streptomycin sulfate. All tissue culture reagents were obtained from Life Technologies Inc. (Life Technologies, Inc., Gaithersburg, Md.). Cell lines were cultivated for a minimum of two passages after thawing prior to experimentation.
(§2) The cytotoxicity of the compounds were tested against human ALL cell lines using MTT assays (Roche Molecular Biochemicals, Indianapolis, Ind.), as described previously R. K. Narla et al., 1998, Clin Cancer Res 4:1405-14). Briefly, exponentially growing tumor cells were seeded into a 96-well plate at a density of 4×10^4 cells/well and incubated in medium containing the cinchona alkaloid compounds at concentrations ranging from 0.7 to 100 μM for 48 h at 37° C. in a humidified 5% CO2 atmosphere. To each well, 10 μL of MTT (final concentration, 0.5 mg/ml) was added, and the plates were incubated at 37° C. for 4 h to allow MTT to form formazan crystals by reacting with metabolically active cells. The formazan crystals were solubilized overnight at 37° C. in a solution containing 10% SDS and 0.01 M HCl. The absorbance of each well was measured in a microplate reader (Labsystems) at 540 nm and a reference wavelength of 690 nm. To translate the A540 values into the number of live cells in each well, the A540 values were compared to those on standard A540 versus cell number curves generated for each cell line. The percentage of survival was calculated using the formula: % survival=[Live cell number (test)/Live cell number (control)]×100. The IC50 values were calculated by nonlinear regression analysis using the graphed Prism Software version 2.0 (GraphPad Software, Inc., San Diego, Calif.).

In assay [2] the test system is MOLT-3. The experiment in a line: MTT cytotoxicity assay, MOLT-3. It counts as cell-based, human. The settings on record: read-out: IC50 against MOLT-3. The procedure:
as §1, §2
(In general: Tetrazolium assays rely on reduction of a dye to a coloured formazan, in cell work by metabolically active cells.)

The subject of assay [3] is mammary tumors of MMTV/neu transgenic mice. In words: MMTV/neu transgenic mouse model of HER2+ breast cancer. Type of assay: in vivo. As to conditions: 9-week observation; for tumor shrinkage and tumor growth: AP-8 2 mg/kg i.p. twice daily, paclitaxel 6.7 mg/kg, gemcitabine 33.7 mg/kg; for prevention of tumor progression compared with AP-8: paclitaxel 6.7 mg/kg i.p., gemcitabine 33.7 mg/kg i.p. The text has this: The predictive value of genetically engineered mouse (GEM) models to predict the clinical effectiveness of anti-cancer drugs is well established (Richmond A, Su Y. Mouse xenograft models vs GEM models for human cancer therapeutics. Dis Model Mech. 2008; 1(2-3):78-82. doi:10.1241-2/dmm.0.000976). We used the transgenic mouse model of HER2+ chemotherapy-resistant breast cancer to examine the in vivo anti-cancer activity of AP-8. Overexpression of the wild type Neu in the mammary glands of transgenic mice induces metastatic breast cancer. Accordingly, in the MMTV/Neu transgenic strain, the wild-type neu is overexpressed in the mammary gland under the control of the MMTV long terminal repeat. This animal model has been used to analyze the efficacy of new therapeutic approaches to prevent or treat Her2/neu overexpressing malignancies (Uckun, Dibirdik). MMTV/Neu transgenic mice [FVB/N-TgN(MMTV/neu)202MUL; Jackson Laboratory, Bar Harbor, Me.] were bred to produce multiple litters in a controlled SPF environment (12 h light/12 h-dark photoperiod, 22±1° C., 60±10% relative humidity). All mice were housed in microisolator cages (Lab Products, Inc., Maywood, N.Y., USA) containing autoclaved bedding in a controlled specific pathogen-free (SPF) environment (12 h light/12 h-dark photoperiod, 22±1° C., 60±10% relative humidity). Animal studies were approved by the institutional Animal Care and Use Committee of Drug Discovery Enterprises and all animal care procedures conformed to the Guide for the Care and Use of Laboratory Animals of the National Research Council. The genotype of mice was confirmed by multiplex polymerase chain reaction (PCR) tests as previously reported (F. M. Uckun et al., 2007, Bioorganic Med. Chem. 15:800-14; I. Dibirdik et al., 2010, J Nanomed and Nanotechnol. 1:001-4).
Neu transgenic mice carrying one or more tumors were randomly placed in the study. For the evaluation of tumor kinetics, tumor-bearing mice were randomly assigned to either vehicle control or treatment groups. Tumor growth was determined by the measurement of tumors with a caliper in three dimensions three days a week and expressed as tumor volume in cubic millimeters (mm^3). Tumor volumes were calculated using the formula for the volume of a prolate spheroid, V=4/3×3.14×length/2×width/2×depth/2. Due to the large heterogeneity in transgenic tumor volumes on day 0, tumor growth for each mouse was normalized to the starting volume for that particular tumor. Therefore, each mouse also served as its own control, and the tumor growth curves were generated to show the rate of change in tumor volumes.
AP-8 (50 μg˜2 mg/kg in 50 μL DMSO as vehicle) (10 mice, 12 target mammary tumors, Initial average tumor volume=787±125 mm^3) was administered by twice daily intraperitoneal injections on 5 consecutive days per week. Paclitaxel (10 mice, 13 target mammary tumors, Initial average tumor volume=554±79 mm^3) was administered intraperitoneally on days 1, 3, and 5 of each week at a dose level of 6.7 mg/kg ([…]). Gemcitabine (13 mice, 18 target mammary tumors, Initial average tumor volume=549±60 mm^3) was administered intraperitoneally on days 1 and 8 every 4 weeks at a dose level of 33.7 mg/kg (˜1 g/m^2). Control mice (8 mice, 10 mammary tumors, Initial average tumor volume=293±61 mm^3) were treated by twice daily intraperitoneal injections of vehicle alone (50 μL DMSO) on 5 consecutive days per week. […]

Like-named read-outs stand apart in the source and are kept apart here.

In general, IC50 refers to the concentration at which inhibition is half-maximal. “2,4,6-Tri (9-O-dihydrocinchonidinyl)pyrimidine [AP-6]”: the half-inhibitory concentration (IC50) in assay [1] (48 h) was 6 µM; in assay [2] (48 h), 11.4 µM.

For the molecule “2,4,6-Tri(9-O-cinchonidinyl)pyrimidine [AP-2]”, the figures for the IC50 in assay [1] (48 h) and in assay [2] (48 h) were 11.4 µM and 5.8 µM, respectively.

Turning to `C=CC1CN2CCC1CC2C(Oc1cc(OC(c2ccnc3ccc(OC)cc23)C2CC3CCN2CC3C=C)nc(OC(c2ccnc3ccc(OC)cc23)C2CC3CCN2CC3C=C)n1)c1ccnc2ccc(OC)cc12` (single isomer, unassigned) [AP-3, 2,4,6-Tri(9-O-quininyl)pyrimidine], the IC50 in assay [1] (48 h) worked out at 3.6 µM; in assay [2] (48 h), 4.5 µM.

Consider `C=CC1CN2CCC1CC2C(Oc1cc(OC(c2ccnc3ccc(OC)cc23)C2CC3CCN2CC3C=C)nc(OC(c2ccnc3ccc(OC)cc23)C2CC3CCN2CC3C=C)n1)c1ccnc2ccc(OC)cc12` (single isomer, unassigned) [AP-4, 2,4,6-Tri (9-O-quinidinyl)pyrimidine], for which the IC50 in assay [1] (48 h) was determined as 2.8 µM; in assay [2] (48 h), 3.1 µM.

Turning to `CC[C@@H]1CN2CCC1C[C@@H]2C(Oc1cc(O[C@@H](c2ccnc3ccc(OC)cc23)[C@@H]2CC3CCN2C[C@@H]3CC)nc(OC(c2ccnc3ccc(OC)cc23)[C@H]2CC3CCN2C[C@H]3CC)n1)c1ccnc2ccc(OC)cc12` (some centres unmarked) [AP-7, 2,4,6-Tri (9-O-dihydroquininyl)pyrimidine], the IC50 in assay [1] (Homo sapiens, NALM-6, 48 h) came out at 3.3 µM; in assay [2] (Homo sapiens, MOLT-3, 48 h), 3.5 µM.

On to `Nc1ccn([C@@H]2O[C@H](CO)[C@@H](O)C2(F)F)c(=O)n1` [gemcitabine, Gemcitabine], for which, in assay [3], the “tumor shrinkage and tumor growth” value was “Neither paclitaxel nor gemcitabine at the clinically applicable dose levels used in these experiments induced tumor shrinkage”; the “prevention of tumor progression compared with AP-8” value is “less effective than AP-8 in preventing tumor progression”.

`CC(=O)O[C@H]1C(=O)[C@@]2(C)[C@H]([C@H](OC(=O)c3ccccc3)[C@]3(O)C[C@H](OC(=O)[C@H](O)[C@@H](NC(=O)c4ccccc4)c4ccccc4)C(C)=C1C3(C)C)[C@]1(OC(C)=O)CO[C@@H]1C[C@@H]2O` [paclitaxel, Paclitaxel]: in assay [3], the “tumor shrinkage and tumor growth” value is recorded as “Neither paclitaxel nor gemcitabine at the clinically applicable dose levels used in these experiments induced tumor shrinkage”; the “prevention of tumor progression compared with AP-8” value is recorded as “less effective than AP-8 in preventing tumor progression”.
